Measured values from the NIST ThermoML archive (doi:10.1016/j.jct.2016.12.018).
Numbers after ± are expanded uncertainties.

How the values were obtained:
[1] = 293.15 K; 100 kPa; Liquid; Vibrating tube method
[2] = refractive index (Na D-line) (dimensionless); conditions: 293.15 K; 100 kPa; Liquid; Standard Abbe refractometry

| mass density [1] | refractive index [2] | Structure (SMILES) |
| --- | --- | --- |
| 924.84 ± 2 kg/m3 | 1.45756 ± 0.0011 | CC12CCC(CC1)C(C)(C)O2 [1,3,3-trimethyl-2-oxabicyclo[2.2.2]octane] |
|  | 1.33299 ± 0.001 | O [water] |
